Test results taken from ChEMBL document CHEMBL1132473 (J Med Chem, 1999).

Each molecule was assayed against 4-aminobutyrate aminotransferase, mitochondrial (Sus scrofa, UniProt P80147) (assay: Compound was tested for the inhibition of Gamma-amino-N-butyrate transaminase (GABA-AT)).
Sequence of 4-aminobutyrate aminotransferase, mitochondrial (P80147 whole entry): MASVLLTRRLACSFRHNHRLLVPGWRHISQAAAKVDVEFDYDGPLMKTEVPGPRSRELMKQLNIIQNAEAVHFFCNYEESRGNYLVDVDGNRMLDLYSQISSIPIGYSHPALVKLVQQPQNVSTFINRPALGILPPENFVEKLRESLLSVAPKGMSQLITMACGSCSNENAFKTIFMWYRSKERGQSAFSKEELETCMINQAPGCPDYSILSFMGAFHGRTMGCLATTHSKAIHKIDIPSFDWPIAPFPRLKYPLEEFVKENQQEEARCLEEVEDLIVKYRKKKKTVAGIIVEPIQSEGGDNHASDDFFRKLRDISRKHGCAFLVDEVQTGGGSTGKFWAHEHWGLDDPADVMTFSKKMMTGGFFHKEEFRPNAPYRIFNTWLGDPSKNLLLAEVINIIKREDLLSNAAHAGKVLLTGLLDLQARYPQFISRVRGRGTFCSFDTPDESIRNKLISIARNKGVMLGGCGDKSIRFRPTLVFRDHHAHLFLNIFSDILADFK

| Ki [µM] | Compound |
| --- | --- |
| 1200 | N[C@@H]1CC=C(C(=O)O)C1 |
| 38000 | N[C@@H]1C=C[C@@H](C(=O)O)C1 |
| 2700 | N[C@H]1C=C[C@@H](C(=O)O)C1 |
| 52 | N[C@@H]1C=C[C@H](C(=O)O)C1 |
| 72000 | N[C@H]1CC=C(C(=O)O)C1 |
| 600 | NC1C=CC(C(=O)O)C1 (racemic) |
